According to patent US20250163459A1, “IMPROVED CELL LINES AND METHODS FOR THE PRODUCTION OF ADENO-ASSOCIATED VECTORS” (CEVEC PHARMACEUTICALS GMBH, priority 2022, published 2025):

What was measured:
Type in all cases: cell-based, human
CAP cells [1] = experiment: Encapsidated host cell DNA in AAV particles, ALU qPCR, CAP-derived producer cells; details: for encapsidated hcDNA: 30 μM and 60 μM, compared to vehicle treated controls (DMSO)
Experimental: (§1) At different time points post transfection, cell suspension was harvested, and cells were lysed by addition of Triton-X 100 (Sigma). After centrifugation, supernatants were diluted and incubated with TurboDNase (ThermoFisher Scientific), in order to remove non-encapsidated DNA contaminants. After inactivation of TurboDNAse, proteinase K was added to digest the viral capsid and subsequently amplify viral genomic DNA or hcDNA via ddPCR or qPCR.
(§2) The following primer/dual-labelled probe combinations (ordered at MWG, Eurofins and IDT, respectively, Table 1) directed against • a) the SV40 PolyA (quantification of viral titer) or • b) Alu sequences (quantification of hcDNA) • were used:
(§3) As standard for the viral genome, linearized transgene plasmid with a defined copy number was used. As standard for the hcDNA assay previously isolated CAP and HEK293 DNA (purified with DNeasy® Blood & Tissue Kit) was used.
AAV samples were treated with Turbo DNAse (Thermo Fischer Scientific) to digest the non-encapsidated DNA before the capsids were digested using Proteinase K. Proteinase K was inactivated by a heating step at 95° C. for 15 min. The samples were measured either by qPCR or ddPCR as follows:
The qPCR reaction contained the following components: 2×Brilliant Multiplex qPCR Master Mix (Agilent), nuclease-free H2O (Thermo Fisher Scientific), primer/probe mix and sample/standard. qPCR was run on an LightCycler 480 according to the manufacturer's instructions.
(§4) • Z-VAD-fmk inhibits caspases 3 and 8 which are upstream of the apoptotic nucleases DFF40 and ENDOG, respectively. • Z-VAD-fmk treatment should therefore reduce chromosomal fragmentation and decrease amount of packageably sized AAV cargo. • Transiently transfected CAP cells and HEK293 cells or full producers were cultured to produce AAV in the presence of absence of Z-VAD-fmk. • Resulting AAV particles were harvested from cell suspension on days 1, 2, 3, and 4 post induction. • Encapsidated host cell DNA was measured using a dedicated qPCR assay amplifying ALU repeats. • DNA fragmentation was determined using the DNA fragmentation assay by Chemometec.

CAP cell line = experiment: Viable cell density and viability of induced AAV producer cells; details: for viable cell density and viability: induced AAV producer cells, versus untreated cells, Camptothecin 10 μM
Experimental: During routine cultivation, cells were diluted with fresh medium to a viable cell density of 0.5-1×10^6 cells/ml every 72 to 96 h. Viable cell density and viability were determined by trypan blue exclusion using a Vi-Cell Blu cell counter (Beckman Coulter).
• Various stable and transient AAV producer cells were induced with doxycycline and treated with different concentrations of the antiapoptotic pan-caspase inhibitor Z-VAD-fmk. • Cell viability was evaluated using the NucleoCounter NC-3000.

CAP cells [2] = experiment: Sub-G1 DNA fragmentation assay (Chemometec, NucleoCounter NC-3000); details: during vector production; Camptothecin 10 μM over night on parental CAP cells
From the text: A DNA fragmentation assay by Chemometec was applied using the NucleoCounter® NC-3000™ according to note No. 3003. Rev. 1.4.
In brief, cells were permeabilized with Ethanol, which allows low molecular weight DNA fragments (e.g., apoptotic DNA) to leak out, while large fragments and undamaged chromosomes are retained inside the nucleus. Total DNA content was stained by DAPI and detected using the NucleoCounter® NC-3000™. Here, cells typically fall into one of three clusters when plotted by signal intensity. The G1 peak represents the majority of cells with 2n DNA content. A second, smaller peak represents cells in G2 phase of the cell cycle, containing 4n. […]
as §4

HEK293 cells [3] = experiment: Encapsidated host cell DNA in AAV particles, ALU qPCR, HEK293 cells; details: up to 40 μg/ml, compared to untreated controls, transient transfection
Experimental: as §1, §2, §3
AAV samples were treated with Turbo DNAse (Thermo Fischer Scientific) to digest the non-encapsidated DNA before the capsids were digested using Proteinase K. Proteinase K was inactivated by a heating step at 95° C. for 15 min. The samples were measured either by qPCR or ddPCR as follows: […]

stable producer cells = experiment: Capsid levels by ELISA; details: in the presence of Z-VAD-fmk
Experimental: Inhibition of apoptotic DNA fragmentation reduces amount and packaging of hcDNA. • a) First page: sensitivity test for Sub-G1 DNA-fragmentation assay (Chemometec) using Camptothecin treatment (10 μM) on parental CAP cells over night. M1 population as % of global DNA stain. Second page: merged curves for apoptotic DNA fragmentation determined by same assay after 0 h (black curve), 18 h (dark grey), and 44 h (light grey), with Z-VAD-fmk (right) and in control samples (left, induction only) • b) First page: Relative share of encapsidated hcDNA [%] in transient and stable AAV8 production at 3 days post induction (transient transfection) and 5 days post induction (stable clone). […] Encapsidated hcDNA was measured in relation to the respective untreated controls, each set at 100%. Second page: fold difference of hcDNA concentration over time [hours] in an untreated AAV production using stable producer clone 1 (light grey line) normalized to 10 μg/ml of Z-VAD-fmk (dark grey line) determined by ALU qPCR. • c) First page: Relative Capsid levels determined by ELISA in stable producer clone 1 and transiently transfected HEK293 suspension cells at different Z-VAD-fmk concentrations and compared with Camptothecin. […] Second page: corresponding host cell DNA per capsid as determined by ALU qPCR normalized to untreated controls. […]

HEK293 cells [4] = experiment: Endpoint PCR for detection of encapsidated hcDNA; details: transiently transfected HEK293 wt cells, cargo 1 or cargo 3
Experimental: Encapsidated hcDNA was prepared as described. PCR setup involved 3 μl sample as template for an endpoint PCR with 40 cylces using Q5 High-Fidelity DNA polymerase (NEB) according to the manufacturer's instructions. PCR samples were analyzed on a 2% agarose gel.

Compound | encapsidated hcDNA (CAP cells [1]; stable inducible AAV producer cells, day 3 post induction) | encapsidated hcDNA (CAP cells [1]; stable inducible AAV producer cells, day 3 post induction, listed as SB 203580) | reduction of encapsidated hcDNA (CAP cells [1]; 60 μM, stable inducible AAV producer cells, compared to vehicle treated controls, day 3 post induction) | increase in viability (CAP cell line; 80 h of treatment with 10 μg/ml, compared to untreated cells) [percentage points] | compensation of Camptothecin-reduced viability and VCD (CAP cell line; co-culturing, 10 μM Camptothecin+20 μM Z-VAD-fmk) | viable cell density and viability (CAP cell line) | amount of low molecular weight DNA (short DNA fragments) (CAP cells [2]) | reduction in encapsidated hcDNA normalized to capsid levels (CAP cells [1]; stable producer cells, compared to controls) [fold] | packaging of host cell DNA (CAP cells [1]; up to 40 μg/ml, compared to untreated controls, fully transient approach and full producers) | packaging of host cell DNA (HEK293 cells [3]) | capsid levels (ELISA) (stable producer cells) | encapsidated hcDNA (genomic DNA sequence from HEK293 cells) (HEK293 cells [4])
C[S+]([O-])c1ccc(-c2nc(-c3ccc(F)cc3)c(-c3ccncc3)[nH]2)cc1 (centres unmarked) [Adezmapimod, 4-(4-fluorophenyl)-2-(4-methylsulfinylphenyl)-5-(4-pyridyl)-1H-imidazole] | reduced hcDNA encapsidation | reduces the encapsidated hcDNA | more than 75% | – | – | – | – | – | – | – | – | –
Z-Val-Ala-Asp fluoromethyl ketone [Z-VAD-fmk] | – | – | – | ~10 | could be compensated | increased viable cell density and viability | reduced the amount of low molecular weight DNA | ~10 | dramatically decreased packaging of host cell DNA | dramatically decreased packaging of host cell DNA | slightly increased | undetectable
CC[C@@]1(O)C(=O)OCc2c1cc1n(c2=O)Cc2cc3ccccc3nc2-1 [Camptothecin] | – | – | – | – | – | reduced viability and VCD | increase in short DNA fragments | – | – | – | – | –
